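How tested: cells in 96-well plates exposed to compound for 48 hours at five concentrations. GI50 = concentration required for 50% inhibition of growth.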 Activity calls are given as the source filed them. Cut-off read from the data, not from the text of the source: active = GI50 up to about 1.1 µM and inactive = higher.
What was measured:
Assay in all cases: inhibition of tumour cell growth, NCI panel, 48 h
786-0 = system: 786-0
A498 = system: A498
A549 = system: A549
ACHN = system: ACHN
BT-549 = system: BT-549
CAKI-1 = system: CAKI-1
CCRF-CEM = system: CCRF-CEM
COLO 205 = system: COLO 205
DU-145 = system: DU-145
EKVX = system: EKVX
HCT-116 = system: HCT-116
HCT-15 = system: HCT-15
HL-60 = system: HL-60
HOP-62 = system: HOP-62
HOP-92 = system: HOP-92
HT-29 = system: HT-29
Hs-578T = system: Hs-578T
IGROV-1 = system: IGROV-1
K562 = system: K562
KM12 = system: KM12
LOX IMVI = system: LOX IMVI
M14 = system: M14
MCF7 = system: MCF7
MDA-MB-231 = system: MDA-MB-231
MDA-MB-435 = system: MDA-MB-435
MDA-N = system: MDA-N
MOLT-4 = system: MOLT-4
Malme-3M = system: Malme-3M
NCI-H226 = system: NCI-H226
NCI-H23 = system: NCI-H23
NCI-H522 = system: NCI-H522
NCI/ADR-RES = system: NCI/ADR-RES
OVCAR-3 = system: OVCAR-3
OVCAR-4 = system: OVCAR-4
OVCAR-5 = system: OVCAR-5
OVCAR-8 = system: OVCAR-8
PC-3 = system: PC-3
RPMI-8226 = system: RPMI-8226
RXF 393 = system: RXF 393
SF-268 = system: SF-268
SF-295 = system: SF-295
SF-539 = system: SF-539
SK-MEL-28 = system: SK-MEL-28
SK-MEL-2 = system: SK-MEL-2
SK-MEL-5 = system: SK-MEL-5
SN12C = system: SN12C
SNB-19 = system: SNB-19
SW-620 = system: SW-620
T47D = system: T47D
TK-10 = system: TK-10
U-251 = system: U-251
UACC-257 = system: UACC-257
UACC-62 = system: UACC-62
UO-31 = system: UO-31
HCC 2998 = system: HCC 2998
NCI-H460 = system: NCI-H460
SK-OV-3 = system: SK-OV-3
SNB-75 = system: SNB-75

Question: Which results are given for `C=CCCC(On1c(-c2ccc(Cl)cc2)csc1=S)c1ccccc1` (stereo unspecified)?
Answer: GI50 (786-0): 32.6 µM (inactive); GI50 (A498): > 100 µM (inactive); GI50 (A549): 31.2 µM (inactive); GI50 (ACHN): 83.6 µM (inactive); GI50 (BT-549): 58.3 µM (inactive); GI50 (CAKI-1): > 100 µM (inactive); GI50 (CCRF-CEM): 12.4 µM (inactive); GI50 (COLO 205): 22.5 µM (inactive); GI50 (DU-145): 49.4 µM (inactive); GI50 (EKVX): 19.9 µM (inactive); GI50 (HCT-116): 7.03 µM (inactive); GI50 (HCT-15): 8.05 µM; GI50 (HL-60): 7.18 µM (inactive); GI50 (HOP-62): 90.6 µM (inactive); GI50 (HOP-92): 40.6 µM (inactive); GI50 (HT-29): 7.59 µM (inactive); GI50 (Hs-578T): 34.4 µM (inactive); GI50 (IGROV-1): 20.2 µM (inactive); GI50 (K562): 9.51 µM (inactive); GI50 (KM12): 26.5 µM (inactive); GI50 (LOX IMVI): 33.6 µM (inactive); GI50 (M14): 13.9 µM (inactive); GI50 (MCF7): 16.7 µM (inactive); GI50 (MDA-MB-231): 68.9 µM (inactive); GI50 (MDA-MB-435): 4.56 µM (inactive); GI50 (MDA-N): 3.36 µM (inactive); GI50 (MOLT-4): 7.62 µM (inactive); GI50 (Malme-3M): 14.6 µM (inactive); GI50 (NCI-H226): 26.7 µM (inactive); GI50 (NCI-H23): 39.4 µM (inactive); GI50 (NCI-H522): 12.4 µM (inactive); GI50 (NCI/ADR-RES): 13.7 µM (inactive); GI50 (OVCAR-3): 23 µM (inactive); GI50 (OVCAR-4): 38.5 µM (inactive); GI50 (OVCAR-5): > 100 µM (inactive); GI50 (OVCAR-8): 98.6 µM (inactive); GI50 (PC-3): 27.3 µM (inactive); GI50 (RPMI-8226): 31.8 µM (inactive); GI50 (RXF 393): 29.7 µM (inactive); GI50 (SF-268): 34 µM (inactive); GI50 (SF-295): 13.9 µM (inactive); GI50 (SF-539): 26.9 µM (inactive); GI50 (SK-MEL-28): 85.3 µM (inactive); GI50 (SK-MEL-2): 14.9 µM (inactive); GI50 (SK-MEL-5): 14.9 µM (inactive); GI50 (SN12C): 47.3 µM (inactive); GI50 (SNB-19): 35.6 µM (inactive); GI50 (SW-620): 8.73 µM (inactive); GI50 (T47D): 17 µM (inactive); GI50 (TK-10): 83.4 µM (inactive); GI50 (U-251): 21.2 µM (inactive); GI50 (UACC-257): 33 µM (inactive); GI50 (UACC-62): 36.7 µM (inactive); GI50 (UO-31): 42 µM (inactive)

Question: Which results are given for `CCOC(=O)[C@H]1O[C@@H]1C(=O)NC(CC(C)C)C(=O)NCCC(C)C` (stereo partly specified)?
Answer: GI50 (786-0): > 100 µM (inactive); GI50 (A498): > 100 µM (inactive); GI50 (A549): > 100 µM (inactive); GI50 (BT-549): > 100 µM (inactive); GI50 (CAKI-1): > 100 µM (inactive); GI50 (CCRF-CEM): > 100 µM (inactive); GI50 (COLO 205): > 100 µM (inactive); GI50 (DU-145): > 100 µM (inactive); GI50 (EKVX): > 100 µM (inactive); GI50 (HCC 2998): > 100 µM (inactive); GI50 (HCT-116): > 100 µM (inactive); GI50 (HCT-15): > 100 µM; GI50 (HOP-62): > 100 µM (inactive); GI50 (HOP-92): > 100 µM (inactive); GI50 (HT-29): > 100 µM (inactive); GI50 (Hs-578T): > 100 µM (inactive); GI50 (IGROV-1): > 100 µM (inactive); GI50 (K562): > 100 µM (inactive); GI50 (KM12): > 100 µM (inactive); GI50 (M14): > 100 µM (inactive); GI50 (MCF7): > 100 µM (inactive); GI50 (MDA-MB-231): > 100 µM (inactive); GI50 (MDA-MB-435): > 100 µM (inactive); GI50 (MDA-N): > 100 µM (inactive); GI50 (MOLT-4): > 100 µM (inactive); GI50 (Malme-3M): > 100 µM (inactive); GI50 (NCI-H226): > 100 µM (inactive); GI50 (NCI-H23): > 100 µM (inactive); GI50 (NCI-H460): > 100 µM (inactive); GI50 (NCI-H522): > 100 µM (inactive); GI50 (NCI/ADR-RES): > 100 µM (inactive); GI50 (OVCAR-3): > 100 µM (inactive); GI50 (OVCAR-4): > 100 µM (inactive); GI50 (OVCAR-5): > 100 µM (inactive); GI50 (OVCAR-8): > 100 µM (inactive); GI50 (PC-3): > 100 µM (inactive); GI50 (RPMI-8226): > 100 µM (inactive); GI50 (SF-268): > 100 µM (inactive); GI50 (SF-295): > 100 µM (inactive); GI50 (SF-539): > 100 µM (inactive); GI50 (SK-MEL-28): > 100 µM (inactive); GI50 (SK-MEL-5): > 100 µM (inactive); GI50 (SK-OV-3): > 100 µM (inactive); GI50 (SN12C): > 100 µM (inactive); GI50 (SNB-19): > 100 µM (inactive); GI50 (SNB-75): > 100 µM (inactive); GI50 (SW-620): > 100 µM (inactive); GI50 (T47D): > 100 µM (inactive); GI50 (U-251): > 100 µM (inactive); GI50 (UACC-257): > 100 µM (inactive); GI50 (UACC-62): > 100 µM (inactive); GI50 (UO-31): > 100 µM (inactive)

From ChEMBL document CHEMBL1201862, “PubChem BioAssay data set” (2004)
